According to the NIST ThermoML archive (doi:10.1021/acs.jced.7b00106):

Details: Liquid, Hot wire method

FC(F)(F)/C=C/Cl [(E)-1-chloro-3,3,3-trifluoroprop-1-ene]
Details	thermal conductivity [W/m/K]
263.11 K, 10284 kPa	0.09779
263.11 K, 15941 kPa	0.1
263.12 K, 275 kPa	0.09368
263.12 K, 5037 kPa	0.09578
263.3 K, 65213 kPa	0.1155
263.31 K, 42853 kPa	0.1092
263.34 K, 36413 kPa	0.1071
263.35 K, 59142 kPa	0.1143
263.39 K, 51112 kPa	0.1115
263.4 K, 29224 kPa	0.1049
263.45 K, 22281 kPa	0.1026
263.48 K, 65190 kPa	0.115
263.49 K, 15926 kPa	0.1002
263.5 K, 10264 kPa	0.0981
263.5 K, 42848 kPa	0.1085
263.52 K, 5059 kPa	0.09603
263.53 K, 267 kPa	0.09392
263.53 K, 36413 kPa	0.1068
263.54 K, 59138 kPa	0.1137
263.58 K, 51103 kPa	0.1112
263.59 K, 29225 kPa	0.1044
263.64 K, 22275 kPa	0.1022
263.7 K, 15944 kPa	0.09988
263.71 K, 10281 kPa	0.09774
263.73 K, 5041 kPa	0.09557
263.75 K, 278 kPa	0.09344
263.84 K, 65191 kPa	0.1154
263.88 K, 42851 kPa	0.1087
263.91 K, 36412 kPa	0.1071
263.95 K, 51092 kPa	0.1113
263.98 K, 29226 kPa	0.1045
264.05 K, 65174 kPa	0.1149
264.1 K, 42852 kPa	0.1085
264.11 K, 59122 kPa	0.1132
264.13 K, 36411 kPa	0.1066
264.17 K, 51091 kPa	0.1108
264.21 K, 29227 kPa	0.1042
281.25 K, 20968 kPa	0.09541
281.29 K, 10961 kPa	0.09337
281.3 K, 3101 kPa	0.08933
281.3 K, 6243 kPa	0.09051
281.31 K, 203 kPa	0.08831
281.31 K, 16036 kPa	0.09555
281.32 K, 20959 kPa	0.09554
281.36 K, 10962 kPa	0.09248
281.38 K, 3093 kPa	0.0889
281.38 K, 6225 kPa	0.09019
281.39 K, 193 kPa	0.08772
281.61 K, 39518 kPa	0.1031
281.62 K, 46215 kPa	0.1057
281.62 K, 55364 kPa	0.1084
281.64 K, 16024 kPa	0.09394
281.64 K, 33249 kPa	0.1009
281.64 K, 64739 kPa	0.1107
281.65 K, 20972 kPa	0.09689
281.65 K, 27078 kPa	0.0987
281.7 K, 10959 kPa	0.09251
281.71 K, 39517 kPa	0.103
281.71 K, 55366 kPa	0.1082
281.72 K, 6236 kPa	0.09039
281.72 K, 46217 kPa	0.1053
281.73 K, 3096 kPa	0.08936
281.73 K, 33252 kPa	0.1011
281.73 K, 64721 kPa	0.1106
281.74 K, 201 kPa	0.08787
281.75 K, 16022 kPa	0.09421
281.75 K, 20962 kPa	0.09616
281.75 K, 27071 kPa	0.09865
281.8 K, 10956 kPa	0.0923
281.83 K, 6219 kPa	0.09017
281.85 K, 185 kPa	0.08733
281.85 K, 3101 kPa	0.08903
282.03 K, 55362 kPa	0.1085
282.04 K, 64705 kPa	0.1107
282.05 K, 39515 kPa	0.1034
282.05 K, 46209 kPa	0.1055
282.08 K, 33242 kPa	0.1012
282.1 K, 27075 kPa	0.09876
282.11 K, 16012 kPa	0.09449
282.11 K, 20964 kPa	0.09638
282.15 K, 46205 kPa	0.1054
282.15 K, 55358 kPa	0.108
282.15 K, 64700 kPa	0.1104
282.16 K, 39512 kPa	0.103
282.18 K, 10959 kPa	0.09237
282.2 K, 33255 kPa	0.101
282.21 K, 6234 kPa	0.09065
282.22 K, 3104 kPa	0.08891
282.23 K, 27070 kPa	0.09861
282.24 K, 198 kPa	0.08741
282.24 K, 16024 kPa	0.0943
282.24 K, 20959 kPa	0.09631
282.31 K, 10962 kPa	0.09207
282.35 K, 6225 kPa	0.09024
282.37 K, 3126 kPa	0.08877
282.38 K, 188 kPa	0.08744
282.5 K, 55349 kPa	0.108
282.5 K, 64686 kPa	0.1105
282.52 K, 39509 kPa	0.103
282.52 K, 46199 kPa	0.1053
282.57 K, 33243 kPa	0.101
282.6 K, 27082 kPa	0.09879
282.62 K, 16026 kPa	0.09446
282.62 K, 20964 kPa	0.09651
282.63 K, 64675 kPa	0.1105
282.64 K, 55348 kPa	0.1078
282.67 K, 39508 kPa	0.103
282.67 K, 46193 kPa	0.105
282.71 K, 10958 kPa	0.09238
282.73 K, 33247 kPa	0.1009
282.75 K, 6236 kPa	0.09029
282.75 K, 27089 kPa	0.09858
282.78 K, 3125 kPa	0.08898
282.78 K, 20962 kPa	0.09627
282.79 K, 16015 kPa	0.09427
282.8 K, 194 kPa	0.08765
282.88 K, 10957 kPa	0.09201
282.92 K, 6218 kPa	0.09006
282.95 K, 3110 kPa	0.08875
282.97 K, 194 kPa	0.08733
282.99 K, 64664 kPa	0.1105
283 K, 55335 kPa	0.1078
283.04 K, 46194 kPa	0.1053
283.06 K, 39510 kPa	0.1032
283.12 K, 33245 kPa	0.1008
283.15 K, 64649 kPa	0.1103
283.16 K, 27095 kPa	0.09871
283.18 K, 20963 kPa	0.09653
283.18 K, 55341 kPa	0.1078
283.21 K, 16028 kPa	0.09435
283.21 K, 46185 kPa	0.105
283.24 K, 39508 kPa	0.103
283.29 K, 10953 kPa	0.09216
283.29 K, 33245 kPa	0.1006
283.34 K, 27084 kPa	0.09839
283.35 K, 6234 kPa	0.09024
283.38 K, 3103 kPa	0.08892
283.38 K, 20960 kPa	0.09617
283.39 K, 16020 kPa	0.09411
283.42 K, 178 kPa	0.08755
283.5 K, 10953 kPa	0.09198
283.54 K, 64641 kPa	0.1105
283.55 K, 6234 kPa	0.08992
283.57 K, 55328 kPa	0.108
283.59 K, 3103 kPa	0.08855
